Reference: patent US11773071B2, “Benzothiazepine compounds and their use as bile acid modulators” (Albireo AB, priority 2019, dated 2023)

System: Caco-2 cells
Experiment: Bidirectional permeability assay (Caco-2 cells)
Type: in vitro ADME
Conditions: absorptive direction (A2B); 10 μM in FaSSIF buffer; 120 minutes
Description: Bidirectional Permeability Assay (Caco-2 Cells)
Caco-2 cells (Evotec) were seeded at a density of 70,000 cells/well in Millicell® 24-well cell culture insert plates and maintained in an incubator (37° C., 5% CO2, 95% RH) for 21 days with media change on alternate days.
Stock solutions (10 mM) of the test compounds, atenolol (low permeability marker), propranolol (high permeability marker) and digoxin (substrate for P-gp transport pathway) were prepared in dimethylsulfoxide (DMSO). An intermediate stock solution (1 mM) was prepared by diluting 10 μL of 10 mM master stock solution with 90 μL of neat DMSO. A working stock solution (10 μM) was prepared by diluting 50 μL of 1 mM with 4950 μL of FaSSIF buffer. Post addition of compounds to the FaSSIF, samples were subjected to sonication for 2 hours, and centrifuged at 4000 RPM for 30 minutes at 37° C. The 4 mL of resultant supernatant was directly used in the assay. The final DMSO concentration in the transport experiments was 1%.
On the day of assay, Caco-2 monolayers were washed twice with transport buffer (HBSS, pH 7.4) and pre-incubated for 30 min (37° C., 5% CO2, 95% RH) in an incubator. The electrical resistance of the monolayers was measured with a Millicell®—ERS system. Monolayers with trans-epithelial electrical resistance (TEER) values greater than 350 ohm·cm^2 were selected for the assay.
The assay was conducted in absorptive direction (A2B) and secretory (B2A) directions. Transport experiments were initiated by addition of transport assay buffer (FaSSIF buffer prepared in HBSS) consisting of compounds to the donor compartment (apical chamber A-B; basolateral chamber B-A) in duplicate (n=2) wells. Drug free HBSS buffer (pH 7.4) containing 1% bovine serum albumin (BSA) was introduced to the receiver (A-B-basolateral; B-A-Apical) compartments. The volumes of apical and basolateral compartments were 0.4 and 0.8 mL, respectively. After adding dosing solution, plates were incubated in an incubator for 120 minutes at 37° C. After 120 minutes, donor and receiver samples were collected and matrix matched (1:1, 30 μL study sample+30 μL blank buffer) with the opposite buffer. Dosing samples matrix matched (1:1, 30 μL study sample+30 μL blank buffer) with the opposite buffer. Samples were processed by adding acetonitrile containing internal standard (60 μL study sample+200 μL acetonitrile containing internal standard—Tolbutamide, 500 ng/mL). Samples were vortexed and centrifuged at 4000 rpm for 10 minutes. The obtained supernatant (100 μL) was diluted with 100 μL of water and transferred to fresh 96 well plates. The concentration of compounds in the samples was analyzed by liquid chromatography tandem mass spectrometry (LC-MS/MS) method using discovery grade bio-analytical method, as applicable.
The mean apparent permeability (Papp,×10^−6 cm/sec) of the test compounds, atenolol, propranolol and digoxin were calculated as follows:
[formula] where dq/dt=rate of transport (rate of transport of compound in the receiver compartment), C0=initial concentration in the donor compartment, A=surface area of the effective filter membrane.

Permeability (Caco-2) Papp A2B: 1.5 ×10⁻⁶ cm/s
SMILES: CCCCC1(CCCC)CN(c2ccccc2)c2cc(SC)c(OCC(O)C(=O)O)cc2S(=O)(=O)C1 (single isomer, unassigned) [Example 11, 3-((3,3-dibutyl-7-(methylthio)-1,1-dioxido-5-phenyl-2,3,4,5-tetrahydro-1,5-benzothiazepin-8-yl)oxy)-2-hydroxypropanoic acid]
